pIC50: −log10 of the molar value.
Each compound was assayed against Bifunctional purine biosynthesis protein ATIC (Homo sapiens, UniProt P31939) (assay: AICAR Tfase Inhibition Assay). Settings: pH 7.5; 22 °C.
Procedure: The human ATIC enzyme was used for the inhibition assay. The assay buffer was flushed with nitrogen to minimize oxidization of cofactor 10-f-THF. The reaction was initiated by adding the substrate AICAR to reaction mixtures containing ATIC, test compounds, and different concentrations of cofactor. […] The THF was generated in the transfer reaction of the formyl group from cofactor to AICAR to produce 5-formyl-AICAR. IC50 values were measured from dose-response curves.

Bifunctional purine biosynthesis protein ATIC, sequence (P31939 whole entry): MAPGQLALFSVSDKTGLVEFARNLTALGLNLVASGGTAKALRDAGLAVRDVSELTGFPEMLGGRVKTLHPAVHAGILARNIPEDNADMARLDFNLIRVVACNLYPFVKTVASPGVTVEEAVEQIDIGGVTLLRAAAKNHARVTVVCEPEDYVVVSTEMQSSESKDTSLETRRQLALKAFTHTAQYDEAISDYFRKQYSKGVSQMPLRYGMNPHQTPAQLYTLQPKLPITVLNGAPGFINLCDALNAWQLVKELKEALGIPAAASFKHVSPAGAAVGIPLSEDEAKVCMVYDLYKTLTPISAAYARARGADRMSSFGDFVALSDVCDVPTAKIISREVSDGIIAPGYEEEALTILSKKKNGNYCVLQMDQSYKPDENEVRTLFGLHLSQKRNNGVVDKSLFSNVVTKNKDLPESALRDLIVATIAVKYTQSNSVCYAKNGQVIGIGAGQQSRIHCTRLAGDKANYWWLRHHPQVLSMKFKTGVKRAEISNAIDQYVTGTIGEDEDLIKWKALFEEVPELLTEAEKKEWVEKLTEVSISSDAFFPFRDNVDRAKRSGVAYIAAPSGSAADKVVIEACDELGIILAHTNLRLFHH

Structure (SMILES)	pIC50
Cc1cc(N=Nc2c(C)[nH]n(-c3ccc(S(=O)(=O)O)cc3)c2=O)ccc1S(=O)(=O)Nc1ccccc1	4.94
Cc1[nH]n(-c2ccc(S(=O)(=O)O)cc2)c(=O)c1N=Nc1cc(Cl)cc(S(=O)(=O)O)c1C(=O)O [4-chloro-2-[(E)-2-[5-hydroxy-3-methyl-1-(4-sulfophenyl)-1H-pyrazol-4-yl]diazen-1-yl]-6-sulfobenzoic acid]	4.38
Cc1ccc(OS(=O)(=O)c2ccc(N=Nc3c(C)[nH]n(-c4ccc(Cl)cc4S(=O)(=O)O)c3=O)cc2)cc1 [5-chloro-2-{5-hydroxy-3-methyl-4-[(E)-2-[4-(4-methylphenoxysulfonyl)phenyl]diazen-1-yl]-1H-pyrazol-1-yl}benzene-1-sulfonic acid]	5.48

The next lines start with the values.

pIC50	Structure (SMILES)
4.70	Cc1[nH]n(-c2cc(Cl)c(S(=O)(=O)O)cc2Cl)c(=O)c1N=Nc1ccc(S(=O)(=O)O)cc1 [yellow 2G]
5.85	O=S(=O)(O)Oc1c(-c2sc3c(ccc4cccc(Cl)c43)c2OS(=O)(=O)O)[nH]c2ccc(Br)cc12 [{4-[5-bromo-3-(sulfooxy)-1H-indol-2-yl]-13-chloro-3-thiatricyclo[7.4.0.0^{2,6}]trideca-1(9),2(6),4,7,10,12-hexaen-5-yl}oxidanesulfonic acid]

From BindingDB's records for doi:10.1074/jbc.M406801200 (The Scripps Research Institute, 2004)
